The values that follow are results of earlier work, collected in US12662707B2, “MYC amplification drives resistance to pan-RAS inhibitors in pancreatic cancer” (The Trustees of Columbia University in the City of New York, priority 2024, dated 2026).

The structures appear in SMILES notation.

For this data set, the system named is autochthonous KPC pancreatic tumors. Particulars: reference 27; cited from earlier work.

With `Nc1ccn([C@@H]2O[C@H](CO)[C@@H](O)C2(F)F)c(=O)n1` [gemcitabine], the “effect on survival in the KPC model” value is given as “do not significantly alter survival”.
